# Patent publication US11400058B2, “Intravenous formulations of coenzyme Q10 (CoQ10) and methods of use thereof” (Berg LLC, priority 2010, dated 2022)
# Marks after values point to notes of the source that are not given here.
# Test: 4-week repeat-dose toxicology study in rats with 2-week recovery (Study 20000328)
# [1] = 250 mg/kg F, end of dosing, animals of 10
# [2] = 250 mg/kg F, end of recovery, animals of 5
# [3] = 250 mg/kg M, end of dosing, animals of 10
# [4] = 250 mg/kg M, end of recovery, animals of 5
compound,measurement,setting,value
"COC1=C(OC)C(=O)C(C/C=C(\C)CC/C=C(\C)CC/C=C(\C)CC/C=C(\C)CC/C=C(\C)CC/C=C(\C)CC/C=C(\C)CC/C=C(\C)CC/C=C(\C)CCC=C(C)C)=C(C)C1=O [CoQ10, Coenzyme Q10]",Spleen Histiocytic Infiltration,[1],10
same,"Spleen Histiocytic Infiltration, Marked",[1],2
same,"Spleen Histiocytic Infiltration, Mild",[1],1
same,"Spleen Histiocytic Infiltration, Moderate",[1],7
same,ALT,"250 mg/kg F, end of recovery",63* IU/L
same,APPT,"250 mg/kg F, end of recovery",14.7 s
same,AST,"250 mg/kg F, end of recovery",153* IU/L
same,"Body Weight, percent difference from controls","250 mg/kg F, end of recovery",−12.6%
same,"Food Consumption, percent difference from controls","250 mg/kg F, end of recovery",+0.7%
same,GGT,"250 mg/kg F, end of recovery",0.58* IU/L
same,"Liver weight (absolute), percent difference from controls","250 mg/kg F, end of recovery",+19.6%
same,"Spleen weight (absolute), percent difference from controls","250 mg/kg F, end of recovery",+82.7* %
same,Adrenal Gland Vacuolation,[2],5
same,"Adrenal Gland Vacuolation, Marked",[2],1
same,"Adrenal Gland Vacuolation, Mild",[2],0
same,"Adrenal Gland Vacuolation, Minimal",[2],0
same,"Adrenal Gland Vacuolation, Moderate",[2],4
same,Gross Pathology: Enlarged Spleen,[2],2
same,Gross Pathology: Pale Iliac Lymph Node,[2],4
same,Gross Pathology: Pale Liver,[2],5
same,Gross Pathology: Pale Ovaries,[2],4
same,Gross Pathology: Pale Pancreatic Lymph Node,[2],3
same,Liver Focal Necrosis,[2],1
same,"Liver Focal Necrosis, Mild",[2],1
same,"Liver Focal Necrosis, Minimal",[2],0
same,Liver Histiocytic Infiltration,[2],5
same,"Liver Histiocytic Infiltration, Mild",[2],1
same,"Liver Histiocytic Infiltration, Minimal",[2],0
same,"Liver Histiocytic Infiltration, Moderate",[2],4
same,Liver Multifocal Necrosis,[2],1
same,"Liver Multifocal Necrosis, Mild",[2],0
same,"Liver Multifocal Necrosis, Moderate",[2],1
same,Liver Vacuolation,[2],5
same,"Liver Vacuolation, Mild",[2],0
same,"Liver Vacuolation, Minimal",[2],0
same,"Liver Vacuolation, Moderate",[2],5
same,"Lymph Node, Man. Histiocytic Infiltration",[2],5
same,"Lymph Node, Man. Histiocytic Infiltration, Mild",[2],3
same,"Lymph Node, Man. Histiocytic Infiltration, Minimal",[2],1
same,"Lymph Node, Man. Histiocytic Infiltration, Moderate",[2],1
same,"Lymph Node, Mes. Histiocytic Infiltration",[2],5
same,"Lymph Node, Mes. Histiocytic Infiltration, Mild",[2],5
same,"Lymph Node, Mes. Histiocytic Infiltration, Minimal",[2],0
same,Ovary Histiocytic Infiltration,[2],5
same,"Ovary Histiocytic Infiltration, Mild",[2],4
same,"Ovary Histiocytic Infiltration, Minimal",[2],0
same,"Ovary Histiocytic Infiltration, Moderate",[2],1
same,Spleen Histiocytic Infiltration,[2],5
same,"Spleen Histiocytic Infiltration, Marked",[2],0
same,"Spleen Histiocytic Infiltration, Mild",[2],4
same,"Spleen Histiocytic Infiltration, Minimal",[2],1
same,"Spleen Histiocytic Infiltration, Moderate",[2],0
same,Died or Sacrificed Moribund,"250 mg/kg M, animals of 15",0
same,ALT,"250 mg/kg M, end of dosing",35* IU/L
same,APPT,"250 mg/kg M, end of dosing",14.7* seconds
same,AST,"250 mg/kg M, end of dosing",113* IU/L
same,"Body Weight, percent difference from controls","250 mg/kg M, end of dosing",−17.6* %
same,Eosinophils,"250 mg/kg M, end of dosing",0.14* 10^3/cmm
same,Erythrocytes,"250 mg/kg M, end of dosing",6.23 10^6/cmm
same,"Food Consumption, percent difference from controls","250 mg/kg M, end of dosing",−16.4* %
same,GGT,"250 mg/kg M, end of dosing",0.16 IU/L
same,Hematocrit,"250 mg/kg M, end of dosing",40.4* %
same,Hemoglobin,"250 mg/kg M, end of dosing",12.9* g/dL
same,Leukocytes,"250 mg/kg M, end of dosing",15.55* 10^3/cmm
same,"Liver weight (absolute), percent difference from controls","250 mg/kg M, end of dosing",+11.0%
same,Lymphocytes,"250 mg/kg M, end of dosing",12.58 10^3/cmm
same,Neutrophils,"250 mg/kg M, end of dosing",2.13* 10^3/cmm
same,"Spleen weight (absolute), percent difference from controls","250 mg/kg M, end of dosing",+65.9%
same,Adrenal Gland Vacuolation,[3],10
same,"Adrenal Gland Vacuolation, Mild",[3],5
same,"Adrenal Gland Vacuolation, Minimal",[3],0
same,"Adrenal Gland Vacuolation, Moderate",[3],5
same,"Bone Marrow, Sternum Hyperplasia",[3],4
same,"Bone Marrow, Sternum Hyperplasia, Mild",[3],4
same,"Bone Marrow, Sternum Hyperplasia, Minimal",[3],0
same,Gross Pathology: Enlarged Pancreatic Lymph Nodes,[3],5
same,Gross Pathology: Pale Adrenal,[3],4
same,Gross Pathology: Pale Liver,[3],10
same,Gross Pathology: Pale Lymph Nodes,[3],8
same,Gross Pathology: Pale Pituitary,[3],3
same,Gross Pathology: Pale SQ Skin,[3],0
same,Injection Site Mononuclear Cell Infiltration,[3],10
same,"Injection Site Mononuclear Cell Infiltration, Marked",[3],1
same,"Injection Site Mononuclear Cell Infiltration, Mild",[3],0
same,"Injection Site Mononuclear Cell Infiltration, Minimal",[3],0
same,"Injection Site Mononuclear Cell Infiltration, Moderate",[3],9
same,Liver Focal Necrosis,[3],0
same,"Liver Focal Necrosis, Minimal",[3],0
same,Liver Histiocytic Infiltration,[3],10
same,"Liver Histiocytic Infiltration, Mild",[3],7
same,"Liver Histiocytic Infiltration, Minimal",[3],1
same,"Liver Histiocytic Infiltration, Moderate",[3],2
same,Liver Vacuolation,[3],10
same,"Liver Vacuolation, Mild",[3],10
same,"Liver Vacuolation, Minimal",[3],0
same,"Lymph Node, Man. Histiocytic Infiltration",[3],9
same,"Lymph Node, Man. Histiocytic Infiltration, Mild",[3],3
same,"Lymph Node, Man. Histiocytic Infiltration, Minimal",[3],0
same,"Lymph Node, Man. Histiocytic Infiltration, Moderate",[3],6
same,"Lymph Node, Mes. Histiocytic Infiltration",[3],9
same,"Lymph Node, Mes. Histiocytic Infiltration, Mild",[3],7
same,"Lymph Node, Mes. Histiocytic Infiltration, Minimal",[3],1
same,"Lymph Node, Mes. Histiocytic Infiltration, Moderate",[3],1
same,"Skin, Dermis Histiocytic Infiltration",[3],0
same,"Skin, Dermis Histiocytic Infiltration, Marked",[3],0
same,"Skin, Dermis Histiocytic Infiltration, Mild",[3],0
same,"Skin, Dermis Histiocytic Infiltration, Moderate",[3],0
same,"Skin, SQ Histiocytic Infiltration",[3],0
same,"Skin, SQ Histiocytic Infiltration, Mild",[3],0
same,Spleen Histiocytic Infiltration,[3],10
same,"Spleen Histiocytic Infiltration, Marked",[3],1
same,"Spleen Histiocytic Infiltration, Mild",[3],0
same,"Spleen Histiocytic Infiltration, Moderate",[3],9
same,ALT,"250 mg/kg M, end of recovery",96* IU/L
same,APPT,"250 mg/kg M, end of recovery",15.3* seconds
same,AST,"250 mg/kg M, end of recovery",213* IU/L
same,"Body Weight, percent difference from controls","250 mg/kg M, end of recovery",−15.0* %
same,"Food Consumption, percent difference from controls","250 mg/kg M, end of recovery",−14.1%
same,GGT,"250 mg/kg M, end of recovery",0.42 IU/L
same,"Liver weight (absolute), percent difference from controls","250 mg/kg M, end of recovery",+7.6%
same,"Spleen weight (absolute), percent difference from controls","250 mg/kg M, end of recovery",+38.7* %
same,Adrenal Gland Vacuolation,[4],4
same,"Adrenal Gland Vacuolation, Marked",[4],0
same,"Adrenal Gland Vacuolation, Mild",[4],2
same,"Adrenal Gland Vacuolation, Minimal",[4],0
same,"Adrenal Gland Vacuolation, Moderate",[4],2
same,Gross Pathology: Enlarged Spleen,[4],4
same,Gross Pathology: Pale Iliac Lymph Node,[4],3
same,Gross Pathology: Pale Liver,[4],5
same,Gross Pathology: Pale Pancreatic Lymph Node,[4],3
same,Liver Focal Necrosis,[4],2
same,"Liver Focal Necrosis, Mild",[4],1
same,"Liver Focal Necrosis, Minimal",[4],0
same,Liver Histiocytic Infiltration,[4],5
same,"Liver Histiocytic Infiltration, Mild",[4],4
same,"Liver Histiocytic Infiltration, Minimal",[4],1
same,"Liver Histiocytic Infiltration, Moderate",[4],0
same,Liver Multifocal Necrosis,[4],1
same,"Liver Multifocal Necrosis, Mild",[4],1
same,"Liver Multifocal Necrosis, Moderate",[4],0
same,Liver Vacuolation,[4],5
same,"Liver Vacuolation, Mild",[4],0
same,"Liver Vacuolation, Minimal",[4],0
same,"Liver Vacuolation, Moderate",[4],5
same,"Lymph Node, Man. Histiocytic Infiltration",[4],5
same,"Lymph Node, Man. Histiocytic Infiltration, Mild",[4],1
same,"Lymph Node, Man. Histiocytic Infiltration, Minimal",[4],2
same,"Lymph Node, Man. Histiocytic Infiltration, Moderate",[4],2
same,"Lymph Node, Mes. Histiocytic Infiltration",[4],5
same,"Lymph Node, Mes. Histiocytic Infiltration, Mild",[4],5
same,"Lymph Node, Mes. Histiocytic Infiltration, Minimal",[4],0
same,Spleen Histiocytic Infiltration,[4],5
same,"Spleen Histiocytic Infiltration, Marked",[4],1
same,"Spleen Histiocytic Infiltration, Mild",[4],3
same,"Spleen Histiocytic Infiltration, Minimal",[4],0
same,"Spleen Histiocytic Infiltration, Moderate",[4],1
